Test results published in patent US12351555B2, “Process for synthesizing apremilast” (AMGEN INC., priority 2021, dated 2025).

Assay: Moisture sorption analysis (DVS) of crystal Form B of apremilast
Format: physicochemical
Excerpt: FIG. 3B depicts a representative DVS plot of crystal Form B of apremilast.
The crystalline apremilast formed in the disclosed processes can be any crystalline form. Various crystalline apremilast forms are described in detail in PCT Publication No. WO 2009/120167, the disclosure of which is incorporated by reference in its entirety. In various embodiments, the crystalline apremilast formed by the processes disclosed herein can be Form A, Form B, or Form F. In some cases, the crystalline apremilast is Form B. Form B may be characterized by X-ray powder diffraction analysis. In certain embodiments, Form B is characterized by XRPD peaks located at one, two, three, four, five, six, seven, eight, nine, ten, eleven or twelve of the following approximate positions: 10.1, 12.4, 13.5, 15.7, 16.3, 18.1, 20.7, 22.5, 24.7, 26.2, 26.9, 29.1 degrees 2θ. […] In certain embodiments, Form B may be characterized by thermal analysis. In certain embodiments, Form B is characterized by a DSC plot comprising an endothermic event with an onset temperature of about 154° C. In certain embodiments, Form B is characterized by a TGA plot comprising a mass loss of less than about 1%, e.g., about 0.25%, of the total mass of the sample upon heating from about 25° C. to about 140° C. […] In certain embodiments, Form B is anhydrous. In certain embodiments, Form B is unsolvated. In certain embodiments, Form B may be characterized by moisture sorption analysis. […] In certain embodiments, mass gained upon adsorption is lost when the RH is decreased back to about 0% RH.

CCOc1cc(C(CS(C)(=O)=O)N2C(=O)c3cccc(NC(C)=O)c3C2=O)ccc1OC (single isomer, unassigned; (+)) [Form B, (+)-2-[1-(3-ethoxy-4-methoxyphenyl)-2-methylsulfonylethyl]-4-acetylaminoisoindoline-1,3-dione]
stability with respect to humidity: stable with respect to humidity
XRPD pattern following the adsorption/desorption analysis (after adsorption/desorption analysis): substantially unchanged
hygroscopicity (moisture sorption analysis): substantially nonhygroscopic
